Holding throughout (format): in vivo
For assay [1], the system named is Amaranthus retroflexus (AMARE). Nature of the assay: Post-emergence efficacy, Method B. The settings on record: read-out: Control of weed species after post-emergence application, AMARE. The method, then:
(§1) An “instant formulation”, known as the IF50, containing 50 g/L of the “technical” (i.e. unformulated) active ingredient was prepared by dissolving the active ingredient in a mixture of organic solvents and emulsifier, details of which are provided in the table. This IF50 was then mixed with a small, variable amount of acetone to aid dissolution, before addition of an aqueous solution of 1% v/v ammonium sulphate+1% v/v Empicol ESC70 (Sodium lauryl ether sulphate) adjuvant, as the aqueous diluent, to form an aqueous spray solution which contains a predetermined concentration of the active ingredient (which varies depending on the application rate of the active ingredient to the plants).
(§2) This aqueous spray solution was then sprayed onto the plants, after about 12 days' cultivation. The plants were grown from seeds sown in standard soil, placed in a glasshouse under controlled conditions (at 24/18° C. or 20/16° C., day/night; 16 hours light; 65% humidity). After spray application the plants were then grown on in a glasshouse under the same conditions and watered twice daily. […] the test was evaluated (100=total damage to plant; 0=no damage to plant).
(§3) Ipomoea hederacea (IPOHE), Euphorbia heterophylla (EPHHL), Chenopodium album (CHEAL), Amaranthus retroflexus (AMARE), Lolium perenne (LOLPE), Digitaria sanguinalis (DIGSA), Eleusine indica (ELEIN), Echinochloa crus-galli (ECHCG), Setaria faberi (SETFA)

Assay [2] deals with Chenopodium album (CHEAL). Nature of the assay: Post-emergence efficacy, Method B. The settings on record: read-out: Control of weed species after post-emergence application, CHEAL. The method, then: as §1, §2, §3
Assay [3] relates to Digitaria sanguinalis (DIGSA). The assay can be described thus: Post-emergence efficacy, Method B. The settings on record: read-out: Control of weed species after post-emergence application, DIGSA. On the procedure:
as §1, §2, §3

Assay [4] has as its system Echinochloa crus-galli (ECHCG). The assay can be described thus: Post-emergence efficacy, Method B. Conditions: read-out: Control of weed species after post-emergence application, ECHCG. On the procedure: as §1, §2, §3
In assay [5] the test system is Eleusine indica (ELEIN). Nature of the assay: Post-emergence efficacy, Method B. Conditions: read-out: Control of weed species after post-emergence application, ELEIN. The method, then: as §1, §2, §3
Assay [6] concerns Euphorbia heterophylla (EPHHL). Nature of the assay: Post-emergence efficacy, Method B. The settings on record: read-out: Control of weed species after post-emergence application, EPHHL. The method, then: as §1, §2, §3
Assay [7] has as its system Ipomoea hederacea (IPOHE). The assay can be described thus: Post-emergence efficacy, Method B. Conditions: read-out: Control of weed species after post-emergence application, IPOHE. On the procedure: as §1, §2, §3
The subject of assay [8] is Lolium perenne (LOLPE). The assay can be described thus: Post-emergence efficacy, Method B. Conditions: read-out: Control of weed species after post-emergence application, LOLPE. The method, then: as §1, §2, §3
The subject of assay [9] is Setaria faberi (SETFA). The assay can be described thus: Post-emergence efficacy, Method B. Conditions: read-out: Control of weed species after post-emergence application, SETFA. The method, then:
as §1, §2, §3

For the next assay, the system named is Brassica napus (BRSNN). Nature of the assay: Pre-harvest desiccation of crop plants. The settings on record: Table E, evaluated after 7 and 14 days (which not stated), 100=total damage to plant, 0=no damage. On the procedure:
(§4) Seeds of a variety of test species were sown in standard loam based soil in pots. After cultivation from between 21 and 28 days (post-emergence) under controlled conditions in a glasshouse (at 24/16° C., day/night; 14 hours light; 65% humidity) for warm climate species and (at 20/16° C. day/night; 15 hours light; 65% humidity) for cool climate species.
(§5) The plants were sprayed with an aqueous spray solution derived from dissolving the technical active ingredient formula in a small amount of acetone and a special solvent and emulsifier mixture referred to as IF50 (11.12% Emulsogen EL360 TM+44.44% N-methylpyrrolidone+44.44% Dowanol DPM glycol ether), to create a 50 g/I solution which was then diluted to required concentration using a solution of 1% Empicol ESC70 (Sodium lauryl ether sulphate)+1% ammonium sulphate in water as diluent.
(§6) The delivery of the aqueous spray solution was via a laboratory track sprayer which delivered the aqueous spray composition at a rate of 200 litres per hectare, using a flat fan nozzle (Teejet 11002VS) and an application volume of 200 litre/ha (at 2 bar).
(§7) The test plants were then grown in a glasshouse under controlled conditions (at 24/16° C., day/night; 14 hours light; 65% humidity) for warm climate species and (at 20/16° C. day/night; 15 hours light; 65% humidity) for cool climate species and watered twice daily. After 7 and 14 days the test was evaluated (100=total damage to plant; 0=no damage to plant).
(§8) A value of n/t indicates not tested.
(§9) Glycine Max (GLXMA), Solanum turberosum (SOLTU), Gossypium hirsutum (GOSHI), Brassica napus (BRSNN), Helianthus annus (HELAN)

In a further assay the test system is Glycine Max (GLXMA). The assay can be described thus: Pre-harvest desiccation of crop plants. The settings on record: Table E, evaluated after 7 and 14 days (which not stated), 100=total damage to plant, 0=no damage. On the procedure: as §4, §5, §6, §7, §8, §9
Assay [10] relates to Gossypium hirsutum (GOSHI). Nature of the assay: Pre-harvest desiccation of crop plants. The settings on record: Table E, evaluated after 7 and 14 days (which not stated), 100=total damage to plant, 0=no damage. On the procedure: as §4, §5, §6, §7, §8, §9
Assay [11] deals with Solanum turberosum (SOLTU). Nature of the assay: Pre-harvest desiccation of crop plants. Conditions: Table E, evaluated after 7 and 14 days (which not stated), 100=total damage to plant, 0=no damage. On the procedure: as §4, §5, §6, §7, §8, §9
Assay [12] has as its system Amaranthus palmeri (AMAPA). Nature of the assay: Post-emergence efficacy, Method A. Conditions: Amaranthus palmeri, post-emergence, 312 h; Application Rate 500 g/Ha; evaluated after 13 days; Method A; read-out: Control of weed species after post-emergence application, AMAPA (100=total damage to plant; 0=no damage to plant). In a few lines: (§10)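 Visual damage score, 0 (no damage) to 100 (total), taken 13 d after spraying. Pot-grown plants at 14 d post-sowing received an aqueous spray from a 50 g/l acetone/IF50 solution diluted in 0.25% or 1% Empicol ESC70 + 1% ammonium sulphate; glasshouse 24/16 °C, 14 h light, 65% RH, watered twice daily.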

For assay [13], the system named is Chenopodium album (CHEAL). Nature of the assay: Post-emergence efficacy, Method A. Conditions: Chenopodium album, post-emergence, 312 h; Application Rate 500 g/Ha; evaluated after 13 days; Method A; read-out: Control of weed species after post-emergence application, CHEAL (100=total damage to plant; 0=no damage to plant). In a few lines: as §10
For assay [14], the system named is Digitaria sanguinalis (DIGSA). The assay can be described thus: Post-emergence efficacy, Method A. Conditions: Digitaria sanguinalis, post-emergence, 312 h; Application Rate 500 g/Ha; evaluated after 13 days; Method A; read-out: Control of weed species after post-emergence application, DIGSA (100=total damage to plant; 0=no damage to plant). In short, it runs like this:
as §10

The test system of assay [15] is Echinochloa crus-galli (ECHCG). The assay can be described thus: Post-emergence efficacy, Method A. The settings on record: Echinochloa crus-galli, post-emergence, 312 h; Application Rate 500 g/Ha; evaluated after 13 days; Method A; read-out: Control of weed species after post-emergence application, ECHCG (100=total damage to plant; 0=no damage to plant). In a few lines:
as §10

Assay [16] relates to Eleusine indica (ELEIN). Nature of the assay: Post-emergence efficacy, Method A. Conditions: Eleusine indica, post-emergence, 312 h; Application Rate 500 g/Ha; evaluated after 13 days; Method A; read-out: Control of weed species after post-emergence application, ELEIN (100=total damage to plant; 0=no damage to plant). In short, it runs like this:
as §10

In assay [17] the test system is Euphorbia heterophylla (EPHHL). The assay can be described thus: Post-emergence efficacy, Method A. Conditions: Euphorbia heterophylla, post-emergence, 312 h; Application Rate 500 g/Ha; evaluated after 13 days; Method A; read-out: Control of weed species after post-emergence application, EPHHL (100=total damage to plant; 0=no damage to plant). In short, it runs like this:
as §10

The test system of assay [18] is Ipomoea hederacea (IPOHE). The assay can be described thus: Post-emergence efficacy, Method A. Conditions: Ipomoea hederacea, post-emergence, 312 h, Application Rate 500 g/Ha; evaluated after 13 days; Method A; read-out: Control of weed species after post-emergence application, IPOHE (100=total damage to plant; 0=no damage to plant). In a few lines: as §10
The subject of assay [19] is Lolium perenne (LOLPE). The assay can be described thus: Post-emergence efficacy, Method A. Conditions: Lolium perenne, post-emergence, 312 h, Application Rate 500 g/Ha; evaluated after 13 days; Method A; read-out: Control of weed species after post-emergence application, LOLPE (100=total damage to plant; 0=no damage to plant). In a few lines:
as §10

The subject of assay [20] is Setaria faberi (SETFA). Nature of the assay: Post-emergence efficacy, Method A. The settings on record: Setaria faberi, post-emergence, 312 h; Application Rate 500 g/Ha; evaluated after 13 days; Method A; read-out: Control of weed species after post-emergence application, SETFA (100=total damage to plant; 0=no damage to plant). In short, it runs like this:
as §10

[21] abbreviates: Method B, 1000 g/Ha, 100=total damage to plant, 0=no damage.

Each structure is given as a SMILES string. Read-outs that look alike come from different tables or passages of the source.

As for `O=C(O)CC[n+]1ccc(-c2ccncn2)cn1.[Cl-]` [Compound A28], the pest or weed control at 1000 g/ha in assay [1] was determined as 100%; in assay [2], 90%; in [3], 100%; in [4], 100%; in the assay on Eleusine indica (ELEIN) [5], 100%; in assay [6], 100%. For the same compound, the pest or weed control at 1000 g/ha in assay [7] was 100%; in the assay with Lolium perenne (LOLPE) [8], 70%; in the assay with Setaria faberi (SETFA) [9], 40%. In addition, the results for the “Post-emergence dessication efficacy, BRSNN” value in the assay with Brassica napus (BRSNN) (150 g/Ha), with Brassica napus (BRSNN) (300 g/Ha) and in the assay on Brassica napus (BRSNN) (600 g/Ha) were 97, 100 and 100, respectively. Also, the “Post-emergence dessication efficacy, GLXMA” value with Glycine Max (GLXMA) (150 g/Ha) was 93; in the assay on Glycine Max (GLXMA) (300 g/Ha) it was 99; in the assay with Glycine Max (GLXMA) (600 g/Ha), 99. Also, the “Post-emergence dessication efficacy, GOSHI” value in assay [10] (150 g/Ha), in assay [10] (300 g/Ha) and in [10] (600 g/Ha) was 100 throughout. The “Post-emergence dessication efficacy, SOLTU” value in assay [11] (150 g/Ha), in assay [11] (300 g/Ha) and in assay [11] (600 g/Ha) was 100 each time.

As for `O=C([O-])CCC[n+]1ccc(-c2ncccn2)cn1` [Compound A220], the pest or weed control at 500 g/ha in assay [12] came out at 100%; in assay [13], 100%; in assay [14], 90%; in [15], 40%; with Eleusine indica (ELEIN) [16], 20%; in assay [17] it was 90%. Besides, the values for the pest or weed control at 500 g/ha (in assay [18]; with Lolium perenne (LOLPE) [19]; in the assay with Setaria faberi (SETFA) [20]) were 80%, 60% and 60%, respectively. The pest or weed control at 1000 g/ha in assay [1] (setting [21]) turned out to be 100%; in assay [2] (setting [21]), 90%; in [3] (setting [21]), 100%; in [4] (setting [21]), 90%; with Eleusine indica (ELEIN) [5] (setting [21]), 100%; in assay [6] (setting [21]), 100%. For the same compound, the figures for the pest or weed control at 1000 g/ha (in assay [7] (setting [21]); with Lolium perenne (LOLPE) [8] (setting [21]); in the assay on Setaria faberi (SETFA) [9] (setting [21])) were 30%, 90% and 30%, respectively.

Values taken from US20220125051A1, “PRE-HARVEST DESICCATION METHOD” (SYNGENTA CROP PROTECTION AG, priority 2019, published 2022).
